Assay [1] deals with TF1 JAK2 V617F STAT3 reporter. Put plainly: Cellular TF1 STAT3 assay (luciferase reporter), JAK2 V617F. The settings on record: Homo sapiens, TF-1, TF1 cells, JAK2 V617F, read-out: Cell PD-TF1 JAK2 V617F STAT3 (IC50). Type of assay: cell-based. On the procedure:
(§1) Selected compounds of the present disclosure were tested in a Cellular TF1 STAT3 or STAT5 assay, to measure the degree of JAK2-mediated STAT3 or STAT5 phosphorylation, respectively. TF1 cells (immortalized erythroleukemia line) expressing either wildtype or V617F mutant JAK2 with a luciferase reporter were used.
(§2) Cell culture: Cells were put into antibiotic selection (1 ug/ml puro+500 ug/ml Geneticin) when first thawed then maintained in growth media without antibiotics. Cells were maintained in exponential growth phase, between 0.02-1 E6 cells/ml.
(§3) Compound preparation: Compounds were screened as 10-point dose response curves 1:3 dilutions. DMSO is used as the vehicle control. All wells were normalized to the same final DMSO concentration. Compounds were pre-spotted onto 384 well plates using an Echo acoustic dispenser, 50 nL of 1000× (10 mM top concentration) DMSO stock/well. Each compound is run in triplicate plates.
(§4) Cell plating: Cells were counted using Vi-Cell XR, then cells were spun down and resuspended in growth media to 200,000 cells/ml. Cells were added to plates containing compound. 10,000 cells/well in 50 ul volume using a Biomek liquid handler. Plates were briefly mixed on a shaker for 1 minute at 2500 rpm then placed in a 37° C., 5% CO2 incubator overnight for 18-20 hrs.
(§5) Measuring luciferase activity: ONE-glo reagent was brought to room temperature, and 25 μL of ONE-glo assay reagent was added to each well using Biomek liquid handler. The plates were incubated for 10 minutes at room temperature, then luminescence was measured on an Envision plate reader.

Assay [2] concerns TF1 JAK2 V617F STAT5 reporter. In words: Cellular TF1 STAT5 assay (luciferase reporter), JAK2 V617F. Type of assay: cell-based. As to conditions: Homo sapiens, TF-1, TF1 cells, JAK2 V617F, read-out: Cell PD TF1 V617F STAT5 (IC50). On the procedure: as §1, §2, §3, §4, §5

Usually IC50 stands for the concentration that gives 50% inhibition. As to `CNC(=O)c1nnc(NC(=O)C2CC2)cc1Nc1cccc(-c2ccc(C3CN(Cc4ncc(OC)cc4Cl)C3)nc2)c1OC` [Compound 386], the IC50 lay in the range of 5 to 100 µM in assay [1] and 0.5 to 5 µM in assay [2].

Take `CNC(=O)c1nnc(NC(=O)C2CC2)cc1Nc1cccc(-c2cc(N3CC(Oc4ccccn4)C3)n(C)n2)c1OC` [Compound 393]: the results for the IC50 in assay [1] and in assay [2] were 0.5 to 5 µM and 5 to 100 µM, respectively.

As to `COc1c(Nc2cc(NC(=O)C3CC3)nn3cc(C(N)=O)nc23)ccc(C)c1-c1cnn(C2CN(Cc3ccccn3)C2)c1` [Compound 392], the IC50 in assay [1] and in assay [2] was 5 to 100 µM in each case.

With `CNC(=O)c1nnc(NC(=O)C2CC2)cc1Nc1cc(F)c(C)c(-c2ccc(C(=O)N(C)Cc3cc(S(C)(=O)=O)ccn3)nc2)c1OC` [Compound 400], the half-maximal inhibitory concentration (IC50) in assay [2] fell in the range of 0.05 to 0.5 µM.

With `CNC(=O)c1nnc(NC(=O)C2CC2)cc1Nc1cccc(-c2cc(N3CC(Cc4ccccn4)C3)n(C)n2)c1OC` [Compound 404], in assay [2], the IC50 lay in the range of 5 to 100 µM.

For `COc1c(Nc2cc(NC(=O)C3CC3)nnc2-c2ncc[nH]2)cccc1-c1cnn(C2CN(Cc3ccccn3)C2)c1` [Compound 406], the IC50 in assay [2] fell in the range of 5 to 100 µM.

Turning to `CNC(=O)c1nnc(NC(=O)C2CC2)cc1Nc1cccc(-c2cnn(C3CN(Cc4cccc([S@+](C)[O-])n4)C3)c2)c1OC` (single isomer, unassigned) [Compound 402], in assay [2], the IC50 fell in the range of 0.05 to 0.5 µM.

Regarding `CNC(=O)c1nnc(NC(=O)C2CC2)cc1Nc1cccc(-c2ccc(C(=O)N(C)Cc3cc([S@@+](C)[O-])ccn3)nc2)c1OC` (single isomer, unassigned) [Compound 405], in assay [2], the IC50 was 0.05 to 0.5 µM.

In the case of `CNC(=O)c1nnc(NC(=O)C2CC2)cc1Nc1cccc(-c2ccc(C(=O)N(C)Cc3cc(C#N)ccn3)c(C(F)F)c2)c1OC` [Compound 233], the IC50 in assay [1] and in assay [2] was 0.5 to 5 µM each time.

On to `CNC(=O)c1nnc(NC(=O)C2CC2)cc1Nc1cccc(-c2cnn(C3CN(Cc4cccc([S@@+](C)[O-])n4)C3)c2)c1OC` (single isomer, unassigned) [Compound 403], for which the IC50 in assay [2] was in the range of 0.05 to 0.5 µM.

For the compound `CNC(=O)c1nnc(NC(=O)C2CC2)cc1Nc1cccc(-c2ccc(C(=O)N(C)Cc3cc([S@+](C)[O-])ccn3)nc2)c1OC` (single isomer, unassigned) [Compound 407], the IC50 in assay [2] is 0.5 to 5 µM.

For the compound `CNC(=O)c1nnc(NC(=O)C2CC2)cc1Nc1ccc(Cl)c(-c2ccc(C(=O)N(C)Cc3cc(S(C)(=O)=O)ccn3)nc2)c1OC` [Compound 401], in assay [2], the IC50 lay within 0.05 to 0.5 µM.

`CNC(=O)c1nnc(NC(=O)C2CC2)cc1Nc1cccc(-c2ccc(C3CN(Cc4ccc(C(F)(F)F)cn4)C3)nc2)c1OC` [Compound 387]: the IC50 in assay [1] lay within 5 to 100 µM; in assay [2], 0.5 to 5 µM.

With `COc1c(Nc2cc(NC(=O)C3CC3)nn3cc(C#N)nc23)ccc(C)c1-c1cnn(C2CN(Cc3ccccn3)C2)c1` [Compound 395], the IC50 in assay [1] and in assay [2] was 5 to 100 µM each time.

As to `CNC(=O)c1nnc(NC(=O)C2CC2)cc1Nc1cccc(-c2cnn(C3CN(Cc4nn(C)cc4C)C3)c2)c1OC` [Compound 215], the IC50 in assay [1] and in assay [2] was 0.5 to 5 µM each time.
